Four compounds from US20130165520A1, “Hybrid Molecule Having Mixed Retinoic Acid Receptor Agonism and Histone Deacetylase Inhibitory Properties” (priority 2010, published 2013) can be followed below.

SMILES strings stand for the structures.

Holding throughout (format): cell-based
One data set has as its system MDA-MB-231. Briefly: Cell growth measurement. Conditions: 10 days of treatment. The protocol:
(§1) Finally, the effects of 3 on the growth of several breast cancer cell lines [MCF-7 (ER-positive, HER2-negative, RA-sensitive); SkBr3 (ER-negative, HER2-amplified, RA-sensitive); and the normally RA-insensitive MDA-MB-231 (ER-negative, HER2-negative, RA-insensitive)] was assessed.
(§2) Cell Growth Measurement: Cells were plated at 40 k cells per well (6-well plate) in DMEM 5% FBS-T for all cell lines except for I-IMEC cells which were plated in supplemented MEBM from Clonetics. Cells were treated every 48 hours and media was refreshed every 96 hours. After 10 days of treatment cells were harvested in 0.1N NaOH and growth was quantified by analyzing protein content of lysates with a Lowry assay.

The subject of data set [1] is RAR target genes in MCF-7 cell line. Description: RT-qPCR analysis of RAR target genes. From the text:
(§3) The agonist activity of 3 through its effects on RAR target genes was subsequently analyzed (FIG. 3).
For orientation: In qPCR the cycle at which signal appears reflects the starting amount.

The target in the next data set is T1, RARα (Homo sapiens, UniProt P10276).
T1 sequence (P10276 1-462): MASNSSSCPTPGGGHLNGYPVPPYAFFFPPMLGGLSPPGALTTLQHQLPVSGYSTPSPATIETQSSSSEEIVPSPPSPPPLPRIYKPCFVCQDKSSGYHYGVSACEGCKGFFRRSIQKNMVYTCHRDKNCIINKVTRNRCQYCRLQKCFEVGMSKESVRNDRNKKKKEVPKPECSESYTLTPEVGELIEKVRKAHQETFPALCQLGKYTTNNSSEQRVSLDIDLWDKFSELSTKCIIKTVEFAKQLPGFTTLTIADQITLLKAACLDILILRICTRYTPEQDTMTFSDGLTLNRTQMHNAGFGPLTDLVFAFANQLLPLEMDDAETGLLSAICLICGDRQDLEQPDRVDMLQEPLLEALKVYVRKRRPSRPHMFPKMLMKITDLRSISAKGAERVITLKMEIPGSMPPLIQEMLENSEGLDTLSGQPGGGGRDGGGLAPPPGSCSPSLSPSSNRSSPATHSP
Description: BRET assay of agonist-dependent coactivator recruitment in transfected HEK293 cells. As to conditions: 1 μM, 2 hours treatment. On the procedure:
Hybrid 3 was prepared by treatment of the methyl ester of TTNN with excess hydroxylamine under alkaline conditions. The effects of hybrid 3 on RAR were initially assessed using a bioluminescence resonance energy transfer (BRET) assay. The BRET assay monitors agonist-dependent recruitment of coactivators to RARs in transfected HEK293 cells, chosen because of their high degree of transfectability. Energy transfer between luciferase (fused to RARα) and eGFP (fused to the LXXLL coactivator motif) occurs only when these moieties are juxtaposed by the RAR-LXXLL interaction, and can be detected by the emission of green fluorescence.
Cell transfection and BRET assays: HEK293 cells were grown to confluence, trypsinized and plated at a density of 500 k cells per well (12-well plates) in DMEM supplemented with 10% charcoal treated FBS (FBS-T). The following day, cells were transfected with PEI using 0.1 μg of RAR-RLuc vector and 1 μg of LXXLL-eGFP vector. 48 hours post-transfection, cells were treated with retinoids for 2 hours before taking BRET measurements as described previously.

Data set [2] concerns RAR target genes in MDA-MB-231 cell line. Description: RT-qPCR analysis of RAR and HDACi target genes. Conditions: MDA-MB-231 cell line.
Source text: as §3

The next data set has as its system MCF-7. Briefly: Cell growth measurement. As to conditions: 10 days of treatment. On the procedure:
as §1, §2

In a further data set the test system is SkBr3. Briefly: Cell growth measurement. Conditions: 10 days of treatment. The protocol: as §1, §2
In data set [3] the test system is normal human mammary epithelial cells (HMEC). Briefly: Cell growth measurement.

Consider `CC1=C(/C=C/C(C)=C/C=C/C(C)=C/C(=O)O)C(C)(C)CCC1` [ATRA, all-trans-retinoic acid], for which the “effect on cell growth” value in the data set with MDA-MB-231 was “little to no effect”. The “induction of RAR target genes (RT-qPCR)” value in data set [1] is “no induction of either RARB1 or RARB2”; in data set [2], “only induce RARB2”. Also, at RARα, the “RARα agonism (BRET signal)” value is “agonists of RARα”.
Take `CN1c2ccccc2N=C(c2ccc(C(=O)O)cc2)c2cc3c(cc21)C(C)(C)CCC3(C)C` [HX600]: the “RARα agonism (BRET signal)” value on RARα is given as “no increase in BRET signal”.
For `O=C(CCCCCCC(=O)Nc1ccccc1)NO` [SAHA, reference compound], the “effect on cell growth” value with MCF-7 is listed as “shallow activity”; in the data set on MDA-MB-231, “modest decrease in cell growth”; with SkBr3, “shallow activity”. Moreover, in data set [3], the “effect on growth of normal cells” value is reported as “strong inhibition”.
On to `CC1(C)CCC(C)(C)c2cc(-c3ccc4cc(C(=O)O)ccc4c3)ccc21` [TTNN, 6-(5,6,7,8-tetrahydro-5,5,8,8-tetramethyl-2-naphthalenyl)-2-naphthalene carboxylic acid, reference compound], for which the entries for the “effect on cell growth” value in the data set with MCF-7, in the data set on MDA-MB-231 and in the data set with SkBr3 were “inactive”, “little to no effect” and “inactive”, respectively. For the same compound, the “induction of RAR target genes (RT-qPCR)” value in data set [1] is “no induction of either RARB1 or RARB2”; in data set [2] it was “only induce RARB2”. Also, the “RARα agonism (BRET signal)” value at RARα was “agonists of RARα”.
